Measurements from patent publication US8927577B2, “Quinolinyl glucagon receptor modulators” (Pfizer Inc., priority 2011, dated 2015).
Where a name gives a salt, the structure may show the parent alone.

Key:
[1] = molecular target: T1, human glucagon receptor (Homo sapiens (Human), UniProt P47871); experiment: Glucagon cAMP Assay; assay type: cell-based; conditions: CHOK1 cells stably transfected with the human glucagon receptor; 100 pM glucagon challenge; Kb from IC50 by modified Cheng-Prusoff equation
Description: The Cisbio cAMP detection assay is used to determine the ability of punitive glucagon antagonist to block glucagon induced cAMP production. Potential glucagon antagonists are re-suspended and diluted in 100% DMSO. Prior to use in the Glucagon cAMP assay 100×DMSO compound stocks are diluted 20× with DMEM-F12 media (Invitogen) containing either 0.1% or 4% BSA. 2 uls of 5× compound stocks are spotted into the appropriate wells of low binding white solid bottom 384 well plates (Corning). 2 uls of 5% DMSO or known glucagon antagonist are added to each plate to define the assay window. CHOK1 cells stably transfected with the human glucagon receptor are removed from culture flasks with cell dissociation buffer. Cell pellets are re-suspended, at a concentration of 8.3e^5 cells/ml in DMEM-F12 with or without 4% BSA and 200 uM IBMX. 6 uls of cell suspensions are added to the assay plates. Plates are incubated for 20 min at room temperature prior to the addition of a 100 pM challenge dose of glucagon. On a separate plate glucagon dose response curves are run to determine the EC50 of glucagon. After a 30 min room temperature incubation the reaction is terminated by the addition of lysis buffer containing the cAMP detection reagents. Plates are incubated for an additional 60 min at room temperature prior to being read on the Perkin Elmer fluorescent plate reader. Raw is converted to nM of cAMP produced based on a cAMP standard curve. Converted data is then analyzed using the Pfizer data analysis program. IC50 values are determined from the generated sigmoidal dose response curves. Kb values are the calculated using a modified Cheng-Prusoff equation.

[2] = molecular target: T1, human glucagon receptor; experiment: Human Glucagon SPA Assay; conditions: membrane from chem-1 cells stably transfected with the human glucagon receptor; 125 pM [125I]Glucagon-Cex; Ki by Cheng-Prusoff equation; read-out: Binding Ki
Description: The Glucagon SPA assay is used to determine the ability of test compounds to block the binding of glucagon-cex to the glucagon receptor. Test compounds are re-suspended and serially diluted in 100% DMSO. 1 ul of test compound at the desired concentrations is spotted into the appropriate wells of 96 well low binding white clear bottom plate (Corning). 1 ul of DMSO is spotted into total binding wells. 1 ul of a known glucagon antagonist at a concentration of 20 uM is added to non specific binding wells. […] All assay ingredients with the exception of test compounds are re-suspended in the following buffer; 50 mM Hepes pH 7.4; 5 mM MgCl2; 1 mM CaCl; 5% glycerol and 0.2% BSA. Following a 6-10 hr incubation at room temperature the amount of hot ligand bound to the cell membranes is determined by reading the plates on a Wallac Trilux radioactive emission detector. Data is analyzed using Pfizer's Data analysis program. IC50 values are then determined from the generated sigmoidal dose response curves. Ki values are calculated using Cheng-Prusoff equation.

T1 sequence (P47871 26-477): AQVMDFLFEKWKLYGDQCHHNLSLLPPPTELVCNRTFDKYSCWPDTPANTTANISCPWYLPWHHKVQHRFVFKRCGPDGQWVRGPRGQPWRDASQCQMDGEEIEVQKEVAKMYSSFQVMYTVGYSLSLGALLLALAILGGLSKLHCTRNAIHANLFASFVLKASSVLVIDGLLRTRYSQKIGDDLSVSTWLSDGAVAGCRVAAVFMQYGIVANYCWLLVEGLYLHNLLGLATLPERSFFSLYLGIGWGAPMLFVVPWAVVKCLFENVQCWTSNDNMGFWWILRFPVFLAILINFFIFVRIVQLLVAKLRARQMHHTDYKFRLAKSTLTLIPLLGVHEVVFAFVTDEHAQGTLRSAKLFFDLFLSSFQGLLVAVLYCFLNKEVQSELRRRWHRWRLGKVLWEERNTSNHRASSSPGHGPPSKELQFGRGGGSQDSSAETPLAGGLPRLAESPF

| Structure (SMILES) | Kb [1] [nM] | Ki [2] [nM] |
| --- | --- | --- |
| Cc1ccc2ncc(NC(CC(C)C)c3ccc(C(=O)NCCC(=O)O)cc3)cc2c1 (stereo not drawn) [Example 27, N-(4-{3-methyl-1-[(6-methylquinolin-3-yl)amino]butyl}benzoyl)-beta-alanine] | 250 | 160 |
| CC(C)CC(Nc1ccc2cc(C(F)(F)F)ccc2n1)c1ccc(C(=O)NCCC(=O)O)cc1 (racemic) [Example 16, (+/−)3-(4-(3-methyl-1-(6-(trifluoromethyl)quinolin-2-ylamino)butyl)benzamido)propanoic acid] | 800 | 91 |
| Cc1nc2ccccc2nc1NC(CC(C)C)c1ccc(C(=O)NCCC(=O)O)cc1 (racemic) [Example 8, (+/−)-3-{4-[3-methyl-1-(3-methyl-quinoxalin-2-ylamino)-butyl]-benzoylamino}-propionic acid] | 1000 | 979 |
| Cc1cc2cc(F)ccc2nc1NC(c1ccc(C(=O)NCCC(=O)O)cc1)C1CC(C)(C)C1 (single isomer, unassigned; isomer 1) [Example 34, 3-{4-[(3,3-dimethyl-cyclobutyl)-(6-fluoro-3-methyl-quinolin-2-ylamino)-methyl]-benzoylamino}-propionic acid, isomer 1] | 1180 | – |
| CC1(C)CC(C(Nc2cnc3cc(F)ccc3c2)c2ccc(C(=O)NCCC(=O)O)cc2)C1 (racemic) [Example 22, (+/−)3-(4-((3,3-dimethylcyclobutyl)(7-fluoroquinolin-3-ylamino)methyl)benzamido)propanoic acid] | 47 | 25 |
| Cc1cc2ccccc2nc1NC(c1ccc(C(=O)NCCC(=O)O)cc1)C1CC(C)(C)C1 (single isomer, unassigned; isomer 2) [Example 33, 3-{4-[(3,3-dimethyl-cyclobutyl)-(3-methyl-quinolin-2-ylamino)-methyl]-benzoylamino}-propionic acid, isomer 2] | 1820 | – |
| Cc1cc2ccccc2nc1NC(c1ccc(C(=O)NCCC(=O)O)cc1)C1CC(C)(C)C1 (single isomer, unassigned; isomer 1) [Example 32, 3-{4-[(3,3-dimethyl-cyclobutyl)-(3-methyl-quinolin-2-ylamino)-methyl]-benzoylamino}-propionic acid, isomer 1] | 23 | 53 |
| COc1cccc2ccc(NC(CC(C)C)c3ccc(C(=O)NCCC(=O)O)cc3)nc12 (racemic) [Example 6, (+/−)-3-{4-[1-(8-methoxy-quinolin-2-ylamino)-3-methyl-butyl]-benzoylamino}-propionic acid] | 620 | 1860 |
| CC1(C)CC(C(Nc2cnc3ccccc3c2)c2ccc(C(=O)NCCC(=O)O)cc2)C1 (stereo not shown) [Example 24, 3-(4-((3,3-dimethylcyclobutyl)(quinolin-3-ylamino)methyl)benzamido)propanoic acid] | 140 | – |
| CC(C)CC(Nc1cnc2ccccc2c1)c1ccc(C(=O)NCCC(=O)O)cc1 (racemic) [Example 3, (+/−)3-{4-[3-methyl-1-(quinolin-3-ylamino)-butyl]-benzoylamino}-propionic acid] | 270 | 240 |
| Cc1cc2ccc(F)cc2nc1NC(c1ccc(C(=O)NCCC(=O)O)cc1)C1CC(C)(C)C1 (racemic) [Example 21, (+/−)-3-{4-[(3,3-dimethyl-cyclobutyl)-(7-fluoro-3-methyl-quinolin-2-ylamino)-methyl]-benzoylamino}-propionic acid] | 160 | 133 |
| Cc1cc2ccccc2nc1NC(c1ccc(C(=O)NCCC(=O)O)cc1)C1CC(C)(C)C1 (racemic) [Example 19, (+/−)-3-{4-[(3,3-dimethyl-cyclobutyl)-(3-methyl-quinolin-2-ylamino)-methyl]-benzoylamino}-propionic acid] | 64 | 74 |
| O=C(O)CCNC(=O)c1ccc(C(CCC(F)(F)F)Nc2cnc3ccccc3c2)cc1 (racemic) [Example 29, (+/−)-3-(4-(4,4,4-trifluoro-1-(quinolin-3-ylamino)butyl)benzamido)propanoic acid] | 930 | 930 |
| CC(C)CC(Nc1ncc2ccc(F)cc2n1)c1ccc(C(=O)NCCC(=O)O)cc1 (racemic) [Example 4, (+/−)-3-{4-[1-(7-fluoro-quinazolin-2-ylamino)-3-methyl-butyl]-benzoylamino}-propionic acid] | 5100 | 7360 |
| Cc1cc2cc(F)ccc2nc1NC(c1ccc(C(=O)NCCC(=O)O)cc1)C1CC(C)(C)C1 (single isomer, unassigned; isomer 2) [Example 35, 3-{4-[(3,3-dimethyl-cyclobutyl)-(6-fluoro-3-methyl-quinolin-2-ylamino)-methyl]-benzoylamino}-propionic acid, isomer 2] | 33 | 14 |

Other lines, results leading:

| Kb [1] [nM] | Ki [2] [nM] | Structure (SMILES) |
| --- | --- | --- |
| 380 | 452 | CC(C)CC(Nc1ccc2ccccc2n1)c1ccc(C(=O)NCCC(=O)O)cc1 (racemic) [Example 5, (+/−)-3-{4-[3-methyl-1-(quinolin-2-ylamino)-butyl]-benzoylamino}-propionic acid] |
| 3100 | – | CC(C)CC(Nc1ncc2ccccc2n1)c1ccc(C(=O)NCCC(=O)O)cc1 (racemic) [Example 14, (+/−)-3-{4-[3-methyl-1-(quinazolin-2-ylamino)-butyl]-benzoylamino}-propionic acid] |
| 450 | 531 | CC(C)CC(Nc1cc2ccccc2cn1)c1ccc(C(=O)NCCC(=O)O)cc1 (racemic) [Example 9, (+/−)-3-{4-[1-(isoquinolin-3-ylamino)-3-methyl-butyl]-benzoylamino}-propionic acid trifluoroacetate] |
| 69 | 76 | Cc1cc2ccccc2nc1NC(CC(C)C)c1ccc(C(=O)NCCC(=O)O)cc1 (single isomer, unassigned; isomer 1) [Example 30, 3-(4-(3-methyl-1-((3-methylquinolin-2-yl)amino)butyl)benzamido)propanoic acid, Isomer 1] |
| 1000 | – | CC(C)CC(Nc1cnc2ccccc2n1)c1ccc(C(=O)NCCC(=O)O)cc1 (racemic) [Example 7, (+/−)-3-{4-[3-methyl-1-(quinoxalin-2-ylamino)-butyl]-benzoylamino}-propionic acid] |
| 220 | 198 | Cc1cc(NC(CC(C)C)c2ccc(C(=O)NCCC(=O)O)cc2)nc2ccccc12 (racemic) [Example 10, (+/−)-3-{4-[3-methyl-1-(4-methyl-quinolin-2-ylamino)-butyl]-benzoylamino}-propionic acid] |
| 880 | 360 | Cc1nc2ccccc2cc1NC(CC(C)C)c1ccc(C(=O)NCCC(=O)O)cc1 (stereo not shown) [Example 17, (+\−)-3-(4-(3-methyl-1-(2-methylquinolin-3-ylamino)butyl)benzamido)propanoic acid] |
| 1300 | 1240 | Cc1cc2ccccc2nc1NC(CC(C)C)c1ccc(C(=O)NCCC(=O)O)cc1 (single isomer, unassigned; isomer 2) [Example 31, 3-(4-(3-methyl-1-((3-methylquinolin-2-yl)amino)butyl)benzamido)propanoic acid, Isomer 2] |
| 140 | 199 | CC(C)CC(Nc1ccc2cccc(Cl)c2n1)c1ccc(C(=O)NCCC(=O)O)cc1 (racemic) [Example 13, (+/−)-3-{4-[1-(8-chloro-quinolin-2-ylamino)-3-methyl-butyl]-benzoylamino}-propionic acid] |
